The values below come from the supplement of paper PMC10307832.

Common to all, as to experiment: relative viability (nuclei count vs DMSO), 5 days (fraction); higher = more cells survive
Compound in the experiment “Zebularine + Decitabine”: O=c1ncccn1[C@@H]1O[C@H](CO)[C@@H](O)[C@H]1O [Zebularine] + Nc1ncn([C@H]2C[C@H](O)[C@@H](CO)O2)c(=O)n1 [Decitabine] (partner 2 µM)
A digest of the protocol: (§1)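 Each reported value is a median over duplicate plates. It expresses relative viability: treated-well nuclei count divided by vehicle-well nuclei count. Lung cancer cell lines in 1536-well plates were dosed by pin tool a day after seeding, alone with one drug or with a fixed anchor-drug dose plus five library-drug doses (not always all listed) in √10 steps, and nuclei were counted after 5 days.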

Compound in the experiment “Zebularine + OSI-027”: O=c1ncccn1[C@@H]1O[C@H](CO)[C@@H](O)[C@H]1O [Zebularine] + COc1cccc2cc(-c3nc([C@H]4CC[C@H](C(=O)O)CC4)n4ncnc(N)c34)[nH]c12 [OSI-027] (partner 0.5 µM)
A digest of the protocol: as §1

Compound in the experiment “BI-D1870 + Vorinostat”: CC(C)CCN1c2nc(Nc3cc(F)c(O)c(F)c3)ncc2N(C)C(=O)C1C [BI-D1870] + O=C(CCCCCCC(=O)Nc1ccccc1)NO [Vorinostat] (partner 1 µM)
A digest of the protocol:
as §1

Compound in the experiment “BI-D1870 + Bortezomib”: CC(C)CCN1c2nc(Nc3cc(F)c(O)c(F)c3)ncc2N(C)C(=O)C1C [BI-D1870] + CC(C)C[C@H](NC(=O)[C@H](Cc1ccccc1)NC(=O)c1cnccn1)B(O)O [Bortezomib] (partner 0.002 µM)
A digest of the protocol:
as §1

For UMC-11, the relative viability with Zebularine + Decitabine (first compound 1 µM) came to 0.557; in the experiment with Zebularine + Decitabine (first compound 3.162 µM), 0.604; with Zebularine + Decitabine (first compound 10 µM), 0.589; with Zebularine + Decitabine (first compound 31.62 µM), 0.586; with Zebularine + Decitabine (first compound 100 µM), 0.527; in the experiment with Zebularine + OSI-027 (first compound 1 µM), 0.544. The relative viability with Zebularine + OSI-027 (first compound 3.162 µM) was 0.478; in the experiment with Zebularine + OSI-027 (first compound 10 µM) it was 0.297; with Zebularine + OSI-027 (first compound 31.62 µM), 0.473; with Zebularine + OSI-027 (first compound 100 µM), 0.407; with BI-D1870 + Vorinostat (first compound 0.04 µM) it was 0.394; with BI-D1870 + Vorinostat (first compound 0.1265 µM) it was 0.377. Besides, the relative viability in the experiment with BI-D1870 + Vorinostat (first compound 0.4 µM) is 0.337; with BI-D1870 + Vorinostat (first compound 1.265 µM), 0.329; with BI-D1870 + Vorinostat (first compound 4 µM), 0.128; with BI-D1870 + Bortezomib (first compound 0.04 µM), 0.788; in the experiment with BI-D1870 + Bortezomib (first compound 0.1265 µM) it was 0.647; with BI-D1870 + Bortezomib (first compound 0.4 µM), 0.561. The relative viability with BI-D1870 + Bortezomib (first compound 1.265 µM) is 0.712; with BI-D1870 + Bortezomib (first compound 4 µM), 0.553.
